Test results reported in PMC3242641 (European journal of medicinal chemistry, 2011).

Tests used:
human PBM cells = conditions: 4 h at 50 μM, PHA activated human PBM cells, 37 °C
WT HIV-1 RT [1] = molecular target: T1, WT HIV-1 RT (Human immunodeficiency virus type 1 group M subtype B, UniProt P04585); type: biochemical
HIV-1 = type: cell-based
WT HIV-1 RT [2] = molecular target: T1, WT HIV-1 RT; conditions: read-out: K, dNTP; cited from earlier work
wild-type HBV = assay: Anti-HBV activity, HepG2 AD38 system; type: cell-based; conditions: read-out: Anti-HBV activity EC50
PBM cells [3] = tested on: PBM cells
PBM cells [4] = assay: Cytotoxicity in PBM cells; conditions: cell type not named in the sentence (PBM, CEM and Vero were tested)

With `COc1ncnc2c1ncn2[C@@H]1C[C@@H](N=[N+]=[N-])[C@H](CO)O1` [Compound 9, 9-(3-Azido-2,3-dideoxy-β-L-ribofuranosyl)-6-methoxyl-9H-purine] the “Amount of intracellular nucleoside triphosphate (TP) detected” value (from here on “Amount … (TP) detected”) (human PBM cells) was “below the level of detection”.

With `[N-]=[N+]=N[C@@H]1C[C@@H](n2cnc3c(Cl)ncnc32)O[C@H]1CO` [Compound 7, 9-(3-Azido-2,3-dideoxy-β-L-ribofuranosyl)-6-chloro-9H-purine] the “Amount … (TP) detected” value (human PBM cells) was “no detectable TPs”.

With `Nc1ccn([C@@H]2CS[C@H](COP(=O)(O)OP(=O)(O)OP(=O)(O)O)O2)c(=O)n1` [Compound 3TC-TP] the “Incorporation, fold better than the L-3′-azido-ddNTPs” value (WT HIV-1 RT [1]) was 12-500 fold.

With `CCOC(=O)[C@H](C)NP(=O)(OC[C@@H]1O[C@H](n2cc(C)c(=O)[nH]c2=O)C[C@H]1N=[N+]=[N-])Oc1ccccc1` (stereo partly drawn) [Compound 28, 1-(3′-Azido-2′, 3′-dideoxy-β-L-thymidine)-O-(phenyl-[ethoxyl-L-alaniny])-phosphate] the “Anti-HIV-1 activity, in words” value (HIV-1) was “inactive”.

For `[N-]=[N+]=N[C@@H]1C[C@@H](n2cnc3c(Cl)nc(N)nc32)O[C@H]1CO` [Compound 17, 9-(3-Azido-2,3-dideoxy-β-L-ribofuranosyl)-2-amino-6-chloropurine], the “Amount … (TP) detected” value (human PBM cells) was “no detectable TPs”.

For `Nc1ccn([C@H]2C[C@H](O)[C@@H](COP(=O)(O)OP(=O)(O)OP(=O)(O)O)O2)c(=O)n1` [dCTP], the Kd (WT HIV-1 RT [2]) is listed as 1.1 ± 0.4 µM.

In the case of `CCOC(=O)[C@H](C)NP(=O)(OC[C@@H]1O[C@H](n2cnc3c(N)ncnc32)C[C@H]1N=[N+]=[N-])Oc1ccccc1` (stereo partly drawn) [Compound 11, 3′-Azido-2′, 3′-dideoxy-β-L-adenosine-5′-O-[phenyl-(ethoxy-L-alaninyl)]-phosphate], the “Increase in anti-HIV activity versus 10” value (HIV-1) is reported as 45 fold.

With `CCOC(=O)[C@H](C)NP(=O)(OC[C@@H]1O[C@H](n2cnc3c(Cl)nc(N)nc32)C[C@H]1N=[N+]=[N-])Oc1ccccc1` (stereo partly drawn) [Compound 18, 9-(3-Azido-2,3-dideoxy-β-L-ribofuranosyl)-2-amino-6-chloropurine-5-O-[phenyl-(ethoxy-L-alaninyl)]-phosphate] the “Amount of intracellular intact prodrug detected” value (human PBM cells) was 12 fmol/10^6 cells.

For “9-(3-Azido-2,3-dideoxy-β-L-ribofuranosyl)-2-fluoro-6-aminopurine [Compound 26]”, the EC90 (HIV-1; read-out: Anti-HIV activity EC90) was > 100 µM, the EC50 (wild-type HBV) was > 100 µM and the IC50 (PBM cells [3]) was > 100 µM. For the same compound, the IC50 (CEM cells) was > 100 µM and the IC50 (Vero cells) was > 100 µM.

With `Cc1cn([C@H]2C[C@H](N=[N+]=[N-])[C@@H](CO)O2)c(=O)[nH]c1=O` [Compound 27, 3′-Azido-2′-3′-dideoxy-β-L-thymidine] the “Anti-HIV-1 activity, in words” value (HIV-1) was “inactive”.

In the case of `CCOC(=O)[C@H](C)NP(=O)(OC[C@@H]1O[C@H](n2cnc3c(O)nc(N)nc32)C[C@H]1N=[N+]=[N-])Oc1ccccc1` (stereo partly drawn) [Compound 16, 3′-Azido-2′, 3′-dideoxy-β-L-guanosine-5′-O-[phenyl-(ethoxy-L-alaninyl)]-phosphate], the “Anti-HIV-1 activity, in words” value (HIV-1) is reported as “inactive”.

In the case of `CCOC(=O)[C@H](C)NP(=O)(OC[C@@H]1O[C@H](n2cnc3c(N)nc(N)nc32)C[C@H]1N=[N+]=[N-])Oc1ccccc1` (stereo partly drawn) [Compound 22, 9-(3-Azido-2,3-dideoxy-β-L-ribofuranosyl) -2,6-diaminopurine-5-O-(phenyl-[ethoxyl-L-alaninyl])-phosphate], the “Observed toxicity (no toxicity up to)” value (PBM cells [4]) is reported as > 100 µM.

With `CNc1ncnc2c1ncn2[C@@H]1C[C@@H](N=[N+]=[N-])[C@H](CO)O1` [Compound 12, 9-(3-Azido-2,3-dideoxy-β-L-ribofuranosyl)-6-methylamino-9H-purine] the “Amount … (TP) detected” value (human PBM cells) was “below the level of detection”.
